Laboratory results published in patent US10160763B2, “WDR5 inhibitors and modulators” (Vanderbilt University, priority 2016, dated 2018).

Biological target: WDR5 (Δ23, residues 24-334) (Homo sapiens, UniProt P61964)
Assay: biochemical
Settings: Kd (M), FPA-based binding affinity at the WDR5 WIN site; IC50 converted to Kd by modified Cheng-Prusoff equation; average of two experiments

| SMILES | Kd [M] |
| --- | --- |
| CC(C)N(Cc1cccc(-c2cn3c(n2)CCC3)c1)C(=O)Cc1cc(Cl)cc(Cl)c1 [B73] | 1.9e-06 |
| CCC(C1CC1)N(Cc1cccc(-c2cn3c(n2)CCC3)c1)C(=O)c1cccc(OC)c1 (stereo not drawn) [B87] | 8.63e-07 |
| O=C(NCc1cccc(-c2cn3c(n2)CCC3)c1)C1CCCN(C(=O)C2CC2)C1 (stereo not drawn) [B187] | 9.47e-07 |
| COc1cccc(C(=O)N(Cc2cc(C)cc(-c3cn4c(n3)CCC4)c2)CC2CC2)c1 [B28] | 7.24e-07 |
| CC(C)N1CCCC(C(=O)NCc2cc(-c3cn4c(n3)CCC4)ccc2OC2CCC2)C1 (stereo not drawn) [B199] | 6.3e-06 |
| O=C(Cc1ccc(Cl)c(Cl)c1)NCc1cc(-c2cn3c(n2)CCC3)ccc1N1CCCCC1 [B101] | 2.75e-05 |
| CN(Cc1cccc(-c2cn3c(n2)CCC3)c1)C(=O)Nc1cc(Cl)cc(Cl)c1 [B74] | 8.21e-07 |
| O=C(NCc1cccc(-c2cn3c(n2)CCC3)c1)c1cccc2cccnc12 [B14] | 5.19e-06 |
| Cc1cnc(Cl)c(C(=O)NCc2cccc(-c3cn4c(n3)CCC4)c2)c1 [B169] | 6.68e-07 |
| COc1cc(C(=O)N(Cc2cc(-c3cn4c(n3)CCC4)ccc2N2CCCC2)CC2CC2)ccc1C [B179] | 3.62e-06 |
| COc1ccc(C(=O)N(Cc2cccc(-c3cn4c(n3)CCC4)c2)C(C)c2ccccc2)cc1OC (stereo not drawn) [B70] | 5.98e-06 |
| CC(=O)N1CCCC(CC(=O)NCc2cccc(-c3cn4c(n3)CCC4)c2)C1 (stereo not drawn) [B140] | 8.67e-07 |
| O=C(Cc1cc(C(F)(F)F)cc(C(F)(F)F)c1)NCc1cccc(-c2cn3c(n2)CCC3)c1 [B134] | 4.59e-06 |
| COc1ccc(C(=O)N(CCc2ccccc2)Cc2cccc(-c3cn4c(n3)CCC4)c2)cc1OC [B57] | 4.46e-06 |
| COc1ccc(C(=O)N(Cc2cccc(-c3cn4c(n3)CCC4)c2)C(C)c2cccc(Cl)c2)cc1OC (stereo not drawn) [B68] | 3.72e-06 |
| O=C(CCc1ccccc1)N(Cc1cccc(-c2cn3c(n2)CCC3)c1)CC1CC1 [B19] | 1.82e-06 |

| SMILES | Kd [M] |
| --- | --- |
| CC(C)(NC(=O)Cc1ccc(F)c(Cl)c1)c1cccc(-c2cn3c(n2)CCC3)c1 [B216] | 5.99e-07 |
| O=C(CCc1cccnc1)NCc1cccc(-c2cn3c(n2)CCC3)c1 [B30] | 3.36e-06 |
| O=C(NCc1cccc(-c2cn3c(n2)CCC3)c1)C1CCCNC1 (stereo not drawn) [B43] | 6.3e-07 |
| O=C(Cc1cccnc1)NCc1cccc(-c2cn3c(n2)CCC3)c1 [B152] | 1.23e-06 |
| O=C(NCc1cccc(-c2cn3c(n2)CCC3)c1)c1ccc(Cl)nc1 [B17] | 1.86e-06 |
| O=C(NCc1cccc(-c2cn3c(n2)CCC3)c1)Nc1cc(Cl)cc(Cl)c1 [B33] | 3.52e-06 |
| CC(=O)N1CCCC(C(=O)N(Cc2cccc(-c3cn4c(n3)CCC4)c2)CC2CC2)C1 (stereo not drawn) [B58] | 7.9e-07 |
| O=C(NCc1cccc(-c2cn3c(n2)CCC3)c1)c1cocn1 [B168] | 5.75e-07 |
| Cc1ccc(C(=O)NCc2cccc(-c3cn4c(n3)CCC4)c2)cc1Br [B171] | 6.26e-07 |
| CS(=O)(=O)NCc1cccc(C(=O)NCc2cccc(-c3cn4c(n3)CCC4)c2)c1 [B183] | 1.34e-06 |
| Cc1ccc(C(=O)NCc2cccc(-c3cn4c(n3)CCC4)c2)cc1C(F)(F)F [B130] | 9.72e-07 |
| O=C(NCc1cccc(-c2cn3c(n2)CCC3)c1)c1ccc2c(c1)OCCO2 [B54] | 8.08e-07 |
| CC(=O)NCc1cccc(C(=O)NCc2cccc(-c3cn4c(n3)CCC4)c2)c1 [B189] | 7.41e-07 |
| COc1cccc(C(=O)N(Cc2cc(-c3cn4c(n3)CCC4)ccc2F)CC2CC2)c1 [B90] | 4.24e-05 |
| COc1ccc(C(=O)N(Cc2ccc(C)cc2)Cc2cccc(-c3cn4c(n3)CCC4)c2)cc1OC [B66] | 5.53e-07 |
| O=C(/C=C/c1ccccc1)NCc1cccc(-c2cn3c(n2)CCC3)c1 [B12] | 1.19e-06 |

Compounds with a lower Kd, results first:

| Kd [M] | SMILES |
| --- | --- |
| 5.02e-07 | O=C(Cc1ccc(Cl)c(F)c1)NCc1cccc(-c2cn3c(n2)CCC3)c1 [B82] |
| 4.8e-07 | O=C(Nc1cc(Cl)cc(Cl)c1)N(Cc1cccc(-c2cn3c(n2)CCC3)c1)CC1CC1 [B50] |
| 4.56e-07 | O=C(Cc1ccc(F)c(Cl)c1)N(Cc1cc(-c2cn3c(n2)CCC3)ccc1N1CCOCC1)CC1CCOCC1 [B202] |
| 4.48e-07 | Cc1cc(C(=O)N(C)Cc2cccc(-c3cn4c(n3)CCC4)c2)ccc1Cl [B38] |
| 4.35e-07 | CC(C(=O)NCc1cccc(-c2cn3c(n2)CCC3)c1)c1ccccc1 (stereo not drawn) [B84] |
| 4.1e-07 | CC(C(=O)N(Cc1cccc(-c2cn3c(n2)CCC3)c1)C(C)C)c1cc(Cl)cc(Cl)c1 (stereo not drawn) [B75] |
| 3.91e-07 | Cc1cc(NC(=O)NCc2cccc(-c3cn4c(n3)CCC4)c2)ccc1Cl [B45] |
| 3.83e-07 | NC(C(=O)NCc1cc(-c2cn3c(n2)CCC3)ccc1OC1CCC1)c1ccccc1 (stereo not drawn) [B219] |
| 3.8e-07 | O=C(NCc1cccc(-c2cn3c(n2)CCC3)c1)c1cccc(Cl)c1Cl [B167] |
| 3.07e-07 | COc1cccc(C(=O)NCc2cc(-c3cn4c(n3)CCC4)ccc2N2CC(C)OC(C)C2)c1 (stereo not drawn) [B180] |
| 2.85e-07 | O=C(Cc1cc(Cl)cc(Cl)c1)N(Cc1cccc(-c2cn3c(n2)CCC3)c1)CC1CC1 [B60, N-(Cyclopropylmethyl)-2-(3,5-dichlorophenyl)-N-(3-(6,7-dihydro-5H-pyrrolo[1,2-a]imidazol-2-yl)benzyl)acetamide] |
| 2.58e-07 | COc1cccc(C(=O)N(Cc2cccc(-c3cn4c(n3)CCC4)c2)CC2CCCCC2)c1 [B36] |
| 2.43e-07 | COc1cccc(C(=O)N(Cc2ccccc2)Cc2cccc(-c3cn4c(n3)CCC4)c2)c1 [B35] |
| 2.32e-07 | O=C(Cc1ccc(O)c(Cl)c1)NCc1cccc(-c2cn3c(n2)CCC3)c1 [B120] |
| 2.31e-07 | CC(=O)N1CCCC(C(=O)NCc2cc(-c3cn4c(n3)CCC4)ccc2OC2CCC2)C1 (stereo not drawn) [B164] |
| 2.08e-07 | O=C(Cc1cc(Cl)cc(Cl)c1)NCc1cccc(-c2cn3c(n2)CCC3)c1 [B18] |

| Kd [M] | SMILES |
| --- | --- |
| 2.04e-07 | COc1cc(C(=O)NC(c2cccc(-c3cn4c(n3)CCC4)c2)C(C)C)ccc1C (stereo not drawn) [B220, N-(1-(3-(6,7-Dihydro-5H-pyrrolo[1,2-a]imidazol-2-yl)phenyl)-2-methylpropyl)-3-methoxy-4-methylbenzamide] |
| 1.79e-07 | NC(C(=O)NCc1cc(-c2cn3c(n2)CCC3)ccc1N1CCOCC1)c1ccccc1 (stereo not drawn) [B218] |
| 1.25e-07 | CC(NC(=O)Cc1ccc(Cl)c(Cl)c1)c1cccc(-c2cn3c(n2)CCC3)c1 (stereo not drawn) [B192] |
| 1.18e-07 | COc1cccc(C(=O)N(Cc2cccc(-c3cn4c(n3)CCC4)c2)C(C2CC2)C2CC2)c1 [B81] |
| 1.05e-07 | O=C(Cc1ccc(F)c(Cl)c1)NCc1cccc(-c2cn3c(n2)CCC3)c1 [B155] |
| 1.04e-07 | COc1cccc(C(=O)NCc2cc(-c3cn4c(n3)CCC4)ccc2N2CCCCC2)c1 [B103] |
| 6.3e-08 | CC(=O)N1CCCC(C(=O)N(Cc2cc(-c3cn4c(n3)CCC4)ccc2N2CCOCC2)CC2CC2)C1 (stereo not drawn) [B176] |
| 5.8e-08 | O=C(NCc1cccc(-c2cn3c(n2)CCC3)c1)C1CCCN(C(=O)CC(F)(F)F)C1 (stereo not drawn) [B184] |
| 5.7e-08 | COc1cccc(C(=O)NCc2cc(-c3cn4c(n3)CCC4)ccc2-c2ccccc2)c1 [B126] |
| 4.7e-08 | CC(NC(=O)Cc1ccc(F)c(Cl)c1)c1cc(-c2cn3c(n2)CCC3)ccc1OC1CCC1 (stereo not drawn) [B212] |
| 4e-08 | CC(NC(=O)Cc1ccc(F)c(Cl)c1)c1cc(-c2cn3c(n2)CCC3)ccc1N1CCOCC1 (stereo not drawn) [B214] |
| 2.6e-08 | COc1cc(C(=O)N(Cc2cc(-c3cn4c(n3)CCC4)ccc2N2CCOCC2)CC2CCOCC2)ccc1C [B204] |
| 2.2e-08 | O=C(Cc1ccncc1)NCc1cccc(-c2cn3c(n2)CCC3)c1 [B123] |
| 1e-08 | CC(=O)N1CCCC(C(=O)NC(C)c2cccc(-c3cn4c(n3)CCC4)c2)C1 (stereo not drawn) [B209] |
| 1e-09 | O=C(Cc1ccc2c(c1)OCO2)NCc1cccc(-c2cn3c(n2)CCC3)c1 [B154] |
